These results are taken from US5560912A, “Method for inhibiting growth of helicobacter pylori” (Technion Research & Development Foundation Ltd., priority 1994, dated 1996).

The subject of test [1] is Helicobacter pylori. Nature of the test: Filter paper disc diffusion method, zone of inhibition. It counts as cell-based. As to conditions: read-out: Inhibition zone.
Test [2] concerns Helicobacter pylori. Described as above. It counts as cell-based. How it is done: The inhibition effect was determined in-vitro, using the "Filter paper disc diffusion method" as described by Laura L. Zaika, (journal of Food Safety 9,1988,p.97-118). According to the method used, an extract of the plant was deposited on a small filter paper disc having a diameter of 0.5 cm and then placed in the center of a Petri plate containing agar growth medium inoculated with the test microorganism. The plate was incubated under microaerophilic conditions in anaerobic jars at 37° C. for 3 to 4 days and observed for microbial growth. If the extract of Cinnamon exerts antimicrobial activity, the microorganism will not grow in an area surrounding the filter paper disc. This clear area, defined as "zone of inhibition" was measured and recorded in mm. This method is well-known also for determining the activity of an antibiotic compound, by measuring the zone of inhibition arround a disc containing a sample of the antibacterial compound to be tested.
The assays used for the bacterial growth inhibition were as follows:
Two organic Cinnamon extracts, methylene chloride and ethanol in concentrations of 0.05 mg and 0.1 mg respectively were spotted on standard discs and placed on Egg Yolk Emulsion agar plate center which was previously layered with 0,1 ml of a bacterial suspension having a concentration of 10^7 CFU ml.
After the required incubation, the inhibition zone was recorded. In FIG. 2,there are presented the sensitivity of Helicobacter pylori, as determined by the inhibition diameter, using two organic extracts of Cinnamon (0,05 mg and 0.1 mg dry weight) compared with antibiotics: ampicillin (0.0. mg), tetracycline (0.03 mg), erythromycine (0.015 mg) nalidixic acid (0.03 mg), cotrimoxazole (0.025 mg). In these tests, two isolates of H.pylori were used.
The tests were carried out on Egg Yolk Emulsion agar plate, the Cinnamon concentrations on disk were in the range of […].

[3] abbreviates: Helicobacter pylori, read-out: Inhibition zone.

Bounds are passed on as bounds.

Turning to `CC1=CCC(O)(C(C)C)CC1` (stereo not shown) [Terpinen-4-ol], in test [1], the zone of inhibition at 2000 µg/disc was determined as 22 mm.
Still for that read-out and setting: then `O=C(OCc1ccccc1)c1ccccc1` [Benzyl-benzoate], with 17 mm.
With `CC1=CC=C(C(C)C)CC1` [Alpha-terpinene], the “inhibition of H. pylori growth, in words” value in test [2] is “only a lower inhibition zone”. Moreover, the zone of inhibition at 2000 µg/disc in test [1] was 17 mm.
As to `COc1ccccc1/C=C/C=O`, the “inhibition of H. pylori growth, in words” value in test [2] was “beneficial effect on the inhibition but with a higher concentration”. The Inhibition zone came out at 44 mm in test [2] (0.2 mg/disk, * = substantial complete inhibition); 57 mm in test [2] (0.4 mg/disk); 68 mm in test [2] (0.6 mg/disk).
As for `CC1=CCC2CC1C2(C)C` (stereo not drawn) [Alpha-pinene], the zone of inhibition at 2000 µg/disc in test [1] is 18 mm.
In the case of `OC/C=C/c1ccccc1` [Cinnamic alcohol], the “inhibition of H. pylori growth, in words” value in test [2] is reported as “only a lower inhibition zone”. In test [2] (setting [3]), the zone of inhibition at 200 µg/disc was 12 mm. This compound had a zone of inhibition at 400 µg/disc in test [2] (Helicobacter pylori, 0.4 mg/disk) of 20 mm.
As to `O=CC=Cc1ccccc1` [Cinnamaldehyde], in test [2], the “inhibition of H. pylori growth, in words” value is given as “substantial complete inhibition”. Besides, in test [2] (setting [3]), the zone of inhibition at 50 µg/disc came out at 45 mm, the zone of inhibition at 100 µg/disc is 60 mm and the zone of inhibition at 200 µg/disc is more than 90 mm.
